Reference: patent US20200179428A1, “CYCLIC PHOSPHATE SUBSTITUTED NUCLEOSIDE DERIVATIVES AND METHODS OF USE THEREOF FOR THE TREATMENT OF VIRAL DISEASES” (priority 2016, published 2020)
Like-named read-outs stand apart in the source and are kept apart here.

Legend:
Assay type in all cases: cell-based
replicon cells = experiment: Cytotoxicity MTS assay (CellTiter 96 Aqueous One Solution) in replicon cells; settings: EDU; read-out: CC50 (EDU) Range
replicon cells (1b-Con1) = experiment: Replicon activity assay (replicon RNA level by real-time RT-PCR, Taqman); settings: HCV replicon genotype 1b, read-out: EC50 (1b) Range
How it was run: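 HCV 1b-Con1 replicon cells treated 3 days with 10-point twofold serial dilutions in triplicate (0.5% DMSO, 10% FBS); replicon RNA quantified by Taqman real-time RT-PCR normalised to GAPDH, EC50 derived. Cytotoxicity by MTS read-out at day 3 on identically treated cells.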

[1] = Cytotoxicity MTS assay (CellTiter 96 Aqueous One Solution) in replicon cells; settings: HCV replicon cells (1b-Con1); EDU; read-out: CC50 (EDU) Range

Row | SMILES | CC50 (replicon cells) [µM] | EC50 (replicon cells (1b-Con1)) [µM] | CC50 at 3 days [1] [µM] | EC50 (replicon cells (1b-Con1); Hepatitis C virus) [µM]
1 | C#C[C@]1(C)[C@@H]2OP(=O)(OCC(C)CC(=O)OC3CCCC3)OC[C@H]2O[C@H]1n1ccc(=O)[nH]c1=O (single isomer, unassigned) [Compound 3B] | > 50 | ≤ 0.25 | – | –
2 | CCOC(=O)C(C)CCOP1(=O)OC[C@H]2O[C@@H](n3ccc(=O)[nH]c3=O)[C@](C)(N)[C@@H]2O1 (single isomer, unassigned) [Compound 5B] | > 50 | > 10 | – | –
3 | C#C[C@]1(C)[C@@H]2OP(=O)(OCC(C)CC(=O)OC(C)C)OC[C@H]2O[C@H]1n1ccc(=O)[nH]c1=O (single isomer, unassigned) [Compound 6A1] | > 50 | > 10 | – | –
4 | C#C[C@]1(C)[C@@H]2OP(=O)(OCC(C)CC(=O)OC(C)C)OC[C@H]2O[C@H]1n1ccc(=O)[nH]c1=O (single isomer, unassigned) [Compound 6A2] | > 50 | > 10 | – | –
5 | C#C[C@]1(C)[C@@H]2OP(=O)(OCC(C)CC(=O)OC(C)C)OC[C@H]2O[C@H]1n1ccc(=O)[nH]c1=O (single isomer, unassigned) [Compound 6B1] | > 50 | 1 to 10 | – | –
6 | C#C[C@]1(C)[C@@H]2OP(=O)(OCC(C)CC(=O)OC(C)C)OC[C@H]2O[C@H]1n1ccc(=O)[nH]c1=O (single isomer, unassigned) [Compound 6B2] | > 50 | 1 to 10 | – | –
7 | C#C[C@@]1(O)[C@@H]2OP(=O)(OCC[C@@H](C)C(=O)OC(C)C)OC[C@H]2O[C@H]1n1ccc(=O)[nH]c1=O (single isomer, unassigned) [Compound 7B1] | > 50 | 0.25 to 1 | – | –
8 | C#C[C@@]1(O)[C@@H]2OP(=O)(OCC[C@H](C)C(=O)OC(C)C)OC[C@H]2O[C@H]1n1ccc(=O)[nH]c1=O (single isomer, unassigned) [Compound 7B2] | > 50 | 1 to 10 | – | –
9 | C#C[C@@]1(O)[C@@H]2OP(=O)(OCCC(C)C(=O)OC3CCCC3)OC[C@H]2O[C@H]1n1ccc(=O)[nH]c1=O (single isomer, unassigned) [Compound 8A2] | > 50 | ≤ 0.25 | – | –
10 | C#C[C@@]1(O)[C@@H]2OP(=O)(OCCC(C)C(=O)OC3CCCC3)OC[C@H]2O[C@H]1n1ccc(=O)[nH]c1=O (single isomer, unassigned) [Compound 8B1] | > 50 | ≤ 0.25 | – | –
11 | C#C[C@@]1(O)[C@@H]2OP(=O)(OCC[C@H](C)C(=O)OC3CCCC3)OC[C@H]2O[C@H]1n1ccc(=O)[nH]c1=O (single isomer, unassigned) [Compound 8B2] | > 50 | 0.25 to 1 | – | –
12 | C#C[C@@]1(O)[C@@H]2OP(=O)(OCCC(C)C(=O)OC3CCCC3)OC[C@H]2O[C@H]1n1ccc(=O)[nH]c1=O (single isomer, unassigned) [Compound 8B] | > 50 | ≤ 0.25 | – | –
13 | CC(C)OC(=O)C(C)CCOP1(=O)OC[C@H]2O[C@@H](n3ccc(=O)[nH]c3=O)[C@](C)(N)[C@@H]2O1 (single isomer, unassigned) [Compound 10A2] | > 50 | > 10 | – | –
14 | CC(C)OC(=O)C(C)CCOP1(=O)OC[C@H]2O[C@@H](n3ccc(=O)[nH]c3=O)[C@](C)(N)[C@@H]2O1 (single isomer, unassigned) [Compound 10B1] | > 50 | > 10 | – | –
15 | CC(C)OC(=O)C(C)CCOP1(=O)OC[C@H]2O[C@@H](n3ccc(=O)[nH]c3=O)[C@](C)(N)[C@@H]2O1 (single isomer, unassigned) [Compound 10B2] | > 50 | > 10 | – | –
16 | CC(C)OC(=O)C(C)CCOP1(=O)OC[C@H]2O[C@@H](n3ccc(=O)[nH]c3=O)[C@](C)(N)[C@@H]2O1 (single isomer, unassigned) [Compound 10B] | > 50 | > 10 | – | –
17 | CC(CCOP1(=O)OC[C@H]2O[C@@H](n3ccc(=O)[nH]c3=O)[C@](C)(N)[C@@H]2O1)C(=O)OC1CCCC1 (single isomer, unassigned) [Compound 14A2] | > 50 | > 10 | – | –
18 | CC(CCOP1(=O)OC[C@H]2O[C@@H](n3ccc(=O)[nH]c3=O)[C@](C)(N)[C@@H]2O1)C(=O)OC1CCCC1 (single isomer, unassigned) [Compound 14B1] | > 50 | 1 to 10 | – | –
19 | CC(CCOP1(=O)OC[C@H]2O[C@@H](n3ccc(=O)[nH]c3=O)[C@](C)(N)[C@@H]2O1)C(=O)OC1CCCC1 (single isomer, unassigned) [Compound 14B2] | > 50 | 1 to 10 | – | –
20 | CC(CCOP1(=O)OC[C@H]2O[C@@H](n3ccc(=O)[nH]c3=O)[C@](C)(N)[C@@H]2O1)C(=O)OC1CCCC1 (single isomer, unassigned) [Compound 14B] | > 50 | > 10 | – | –

Row | SMILES | CC50 (replicon cells) [µM] | EC50 (replicon cells (1b-Con1)) [µM] | CC50 at 3 days [1] [µM] | EC50 (replicon cells (1b-Con1); Hepatitis C virus) [µM]
21 | CC(C)OC(=O)[C@@H](C)CCOP1(=O)OC[C@H]2O[C@@H](n3cnc4c(N)ncnc43)[C@](C)(Cl)[C@@H]2O1 (single isomer, unassigned) [Compound 35B1] | > 50 | ≤ 0.25 | – | –
22 | C#C[C@]1(C)[C@@H]2O[P@@](=O)(OCC[C@H](C)C(=O)OC(C)C)OC[C@H]2O[C@H]1n1cnc2c(N)ncnc21 [Compound 72A] | – | – | > 50 | > 10
23 | C#C[C@]1(C)[C@@H]2O[P@](=O)(OCC[C@H](C)C(=O)OC(C)C)OC[C@H]2O[C@H]1n1cnc2c(N)ncnc21 [Compound 72B] | – | – | > 50 | 0.25 to 1
24 | CC(C)OC(=O)[C@@H](C)CCO[P@@]1(=O)OC[C@H]2O[C@@H](n3cnc4c(N)ncnc43)[C@](C)(N)[C@@H]2O1 [Compound 73A] | – | – | > 50 | > 10
25 | CC(C)OC(=O)[C@@H](C)CCO[P@]1(=O)OC[C@H]2O[C@@H](n3cnc4c(N)ncnc43)[C@](C)(N)[C@@H]2O1 [Compound 73B] | – | – | > 50 | 1 to 10
26 | C#C[C@]1(C)[C@@H]2O[P@@](=O)(OCC(CC(=O)OC(C)C)N(C)C(=O)OC(C)(C)C)OC[C@H]2O[C@H]1n1ccc(=O)[nH]c1=O (stereo partly drawn) [Compound 74A1] | – | – | > 50 | > 10
27 | C#C[C@]1(C)[C@@H]2O[P@](=O)(OCC(CC(=O)OC(C)C)N(C)C(=O)OC(C)(C)C)OC[C@H]2O[C@H]1n1ccc(=O)[nH]c1=O (stereo partly drawn) [Compound 74B] | – | – | > 50 | > 10
28 | C#C[C@@]1(O)[C@@H]2OP(=O)(OCC[C@@H](OC)C(=O)OC(C)C)OC[C@H]2O[C@H]1n1ccc(=O)[nH]c1=O (stereo partly drawn) [Compound 76] | – | – | > 50 | ≤ 0.25
29 | C#C[C@]1(C)[C@@H]2O[P@@](=O)(OCCC(C)C(=O)OC3CCCCC3)OC[C@H]2O[C@H]1n1ccc(=O)[nH]c1=O (stereo partly drawn) [Compound 77A] | – | – | > 50 | 1 to 10
30 | C#C[C@]1(C)[C@@H]2O[P@](=O)(OCCC(C)C(=O)OC3CCCCC3)OC[C@H]2O[C@H]1n1ccc(=O)[nH]c1=O (stereo partly drawn) [Compound 77B] | – | – | > 50 | ≤ 0.25
31 | CC(CCO[P@@]1(=O)OC[C@H]2O[C@@H](n3ccc(=O)[nH]c3=O)[C@](C)(N)[C@@H]2O1)C(=O)OC1CCCCC1 (stereo partly drawn) [Compound 78A] | – | – | > 50 | > 10
32 | CC(CCO[P@]1(=O)OC[C@H]2O[C@@H](n3ccc(=O)[nH]c3=O)[C@](C)(N)[C@@H]2O1)C(=O)OC1CCCCC1 (stereo partly drawn) [Compound 78B] | – | – | > 50 | 1 to 10
33 | CCCCCOC(=O)C(C)CCO[P@@]1(=O)OC[C@H]2O[C@@H](n3ccc(=O)[nH]c3=O)[C@](C)(N)[C@@H]2O1 (stereo partly drawn) [Compound 79A] | – | – | > 50 | 1 to 10
34 | CCCCCOC(=O)C(C)CCO[P@]1(=O)OC[C@H]2O[C@@H](n3ccc(=O)[nH]c3=O)[C@](C)(N)[C@@H]2O1 (stereo partly drawn) [Compound 79B] | – | – | > 50 | 1 to 10
35 | C#C[C@@]1(OC(=O)CCC)[C@@H]2O[P@@](=O)(OCC[C@@H](C)C(=O)OC(C)C)OC[C@H]2O[C@H]1n1ccc(=O)[nH]c1=O [Compound 83A1] | – | – | > 50 | ≤ 0.25
36 | C#C[C@@]1(OC(=O)CCCCCC)[C@@H]2O[P@@](=O)(OCC[C@@H](C)C(=O)OC(C)C)OC[C@H]2O[C@H]1n1ccc(=O)[nH]c1=O [Compound 84A1] | – | – | > 50 | ≤ 0.25
37 | C#C[C@@]1(OC(=O)CCC)[C@@H]2O[P@@](=O)(OCC[C@H](C)C(=O)OC(C)C)OC[C@H]2O[C@H]1n1ccc(=O)[nH]c1=O [Compound 85A2] | – | – | > 50 | ≤ 0.25
38 | CC(C)OC(=O)[C@H](C)CCOP1(=O)OC[C@@]2(F)O[C@@H](n3ccc(=O)[nH]c3=O)[C@](C)(O)[C@@H]2O1 (stereo partly drawn) [Compound 86A] | – | – | > 50 | 1 to 10
39 | CC(C)OC(=O)[C@H](C)CCOP1(=O)OC[C@H]2O[C@@H](n3cnc4c(N)ncnc43)[C@](C)(F)[C@@H]2O1 (stereo partly drawn) [Compound 88A] | – | – | > 50 | ≤ 0.25
